# Assay results from patent publication US20220143198A1, “COMPOSITIONS AND METHODS RELATED TO TETHERED KETHOXAL DERIVATIVES” (The University of Chicago, priority 2019, published 2022).
# Legend:
# guanosine [1] = assay: Reversibility of kethoxal derivatives using GTP for competition (LCMS of free guanosine); assay type: physicochemical; details: 1:1 ratio
# guanosine [2] = assay: Reversibility of kethoxal derivatives by adjusting pH (kethoxal-guanosine adduct dissociation); assay type: physicochemical
# guanosine [3] = assay: Reactivity of kethoxal derivatives with guanosine (conversion rates of guanosine); assay type: biochemical
# [4] = pH = 7.0, 10 min, excess GTP added after 10 min
# [5] = pH = 7.0, 2 h, excess GTP competitor
# [6] = pH = 7.0, 24 h, excess GTP competitor
# [7] = pH = 5.8, 4 h after adjusting from pH 10.1, 1:1 ratio
# [8] = pH = 5.8, 24 h after adjusting from pH 10.1, 1:1 ratio
# [9] = pH = 10.1, 10 min, kethoxal derivative and guanosine 1:1
# [10] = pH = 7.8, S1:S2 = 2:1 (S1 guanosine, S2 kethoxal derivative)
smiles,measurement,setting,value
[N-]=[N+]=NCCOC(F)C(=O)C=O (stereo not shown) [drawing 89],Conversion of guanosine under competition condition,guanosine [1]; [4],6.4%
same,Conversion of guanosine under competition condition,guanosine [1]; [5],18.6%
same,Conversion of guanosine under competition condition,guanosine [1]; [6],22.8%
CC(Br)C(=O)C=O (stereo not shown) [drawing 67],Conversion of guanosine,guanosine [2]; [7],64.3%
same,Conversion of guanosine,guanosine [2]; [8],62.9%
same,Conversion of guanosine,guanosine [2]; [9],62.7%
CC(C)(OCCN=[N+]=[N-])C(=O)C=O [drawing 32],Conversion rate of guanosine,"guanosine [3]; pH = 7.8, S1:S2 = 1:1",81.6%
same,Conversion rate of guanosine,"guanosine [3]; pH = 7.8, S1:S2 = 1:2",97.4%
same,Conversion rate of guanosine,guanosine [3]; [10],51.3%
CC(C)(OCCN=[N+]=[N-])C(=O)C=O [drawing 63],Conversion of guanosine,guanosine [2]; [7],77.6%
same,Conversion of guanosine,guanosine [2]; [8],80.3%
same,Conversion of guanosine,guanosine [2]; [9],77.0%
CC(N=[N+]=[N-])C(=O)C=O (stereo not shown) [drawing 35],Conversion rate of guanosine,"guanosine [3]; pH = 7.8, S1:S2 = 1:1",71.2%
same,Conversion rate of guanosine,"guanosine [3]; pH = 7.8, S1:S2 = 1:2",90.3%
same,Conversion rate of guanosine,"guanosine [3]; pH = 7.8, S1:S2 = 1:3",96.5%
same,Conversion rate of guanosine,guanosine [3]; [10],38.0%
CC(OCCN=[N+]=[N-])C(=O)C=O (stereo not shown) [drawing 46],Conversion rate of guanosine,"guanosine [3]; pH = 7.0, S1:S2 = 1:1",70.6%
same,Conversion rate of guanosine,"guanosine [3]; pH = 7.0, S1:S2 = 1:2",93.7%
same,Conversion rate of guanosine,"guanosine [3]; pH = 7.0, S1:S2 = 2:1",39.6%
[N-]=[N+]=NCCOC(F)C(=O)C=O (stereo not shown) [drawing 43],Conversion rate of guanosine,"guanosine [3]; pH = 7.8, S1:S2 = 1:1",30.9%
same,Conversion rate of guanosine,"guanosine [3]; pH = 7.8, S1:S2 = 1:2",49.6%
same,Conversion rate of guanosine,"guanosine [3]; pH = 7.8, S1:S2 = 1:3",69.5%
same,Conversion rate of guanosine,"guanosine [3]; pH = 7.8, S1:S2 = 1:5",76.7%
same,Conversion rate of guanosine,"guanosine [3]; pH = 7.8, S1:S2 = 1:10",81.6%
[N-]=[N+]=NCCCC(=O)C=O [drawing 85],Conversion of guanosine under competition condition,guanosine [1]; [4],46.2%
same,Conversion of guanosine under competition condition,guanosine [1]; [5],21.0%
same,Conversion of guanosine under competition condition,guanosine [1]; [6],22.1%
[N-]=[N+]=NCCOCC(=O)C=O [drawing 64],Conversion of guanosine,guanosine [2]; [7],75.0%
same,Conversion of guanosine,guanosine [2]; [8],76.1%
same,Conversion of guanosine,guanosine [2]; [9],74.6%
CC(N=[N+]=[N-])C(=O)C=O (stereo not shown) [drawing 81],Conversion of guanosine under competition condition,guanosine [1]; [4],56.5%
same,Conversion of guanosine under competition condition,guanosine [1]; [5],40.9%
O=CC(=O)Cc1ccccc1 [drawing 91],Conversion of guanosine under competition condition,guanosine [1]; [4],21.8%
same,Conversion of guanosine under competition condition,guanosine [1]; [5],9.6%
same,Conversion of guanosine under competition condition,guanosine [1]; [6],8.4%
CC(C(=O)C=O)N(C)C(=O)CN=[N+]=[N-] (stereo not shown) [drawing 55],Conversion rate of guanosine,"guanosine [3]; pH = 7.0, S1:S2 = 1:1",46.2%
same,Conversion rate of guanosine,"guanosine [3]; pH = 7.0, S1:S2 = 1:2",64.2%
same,Conversion rate of guanosine,"guanosine [3]; pH = 7.0, S1:S2 = 1:4",84.7%
same,Conversion rate of guanosine,"guanosine [3]; pH = 7.0, S1:S2 = 2:1",20.4%
O=CC(=O)c1ccccc1 [drawing 73],Conversion of guanosine,"guanosine [2]; pH = 5.8, 10 min after adjusting from pH 10.1, 1:1 ratio",12.2%
same,Conversion of guanosine,guanosine [2]; [7],10.7%
same,Conversion of guanosine,guanosine [2]; [8],12.7%
same,Conversion of guanosine,guanosine [2]; [9],28.3%
[N-]=[N+]=NCCOCCC(=O)C=O [drawing 72],Conversion of guanosine,guanosine [2]; [7],16.6%
same,Conversion of guanosine,guanosine [2]; [9],19.7%
CC(N=[N+]=[N-])C(=O)C=O (stereo not shown) [drawing 50],Conversion rate of guanosine,"guanosine [3]; pH = 7.0, S1:S2 = 1:1",46.7%
same,Conversion rate of guanosine,"guanosine [3]; pH = 7.0, S1:S2 = 1:2",79.2%
same,Conversion rate of guanosine,"guanosine [3]; pH = 7.0, S1:S2 = 1:4",95.3%
same,Conversion rate of guanosine,"guanosine [3]; pH = 7.0, S1:S2 = 2:1",22.0%
CC(OC(=O)CN=[N+]=[N-])C(=O)C=O (stereo not shown) [drawing 49],Conversion rate of guanosine,"guanosine [3]; pH = 7.0, S1:S2 = 1:1",50.1%
same,Conversion rate of guanosine,"guanosine [3]; pH = 7.0, S1:S2 = 1:2",81.3%
same,Conversion rate of guanosine,"guanosine [3]; pH = 7.0, S1:S2 = 2:1",29.5%
O=CC(=O)c1ccc([N+](=O)[O-])cc1,Conversion of guanosine under competition condition,guanosine [1]; [4],48.0%
same,Conversion of guanosine under competition condition,guanosine [1]; [5],13.5%
O=CC(=O)c1ccccc1 [drawing 88],Conversion of guanosine under competition condition,guanosine [1]; [4],25.7%
same,Conversion of guanosine under competition condition,guanosine [1]; [5],12.3%
same,Conversion of guanosine under competition condition,guanosine [1]; [6],4.4%
[N-]=[N+]=NCCOC(F)C(=O)C=O (stereo not shown) [drawing 58],Conversion rate of guanosine,"guanosine [3]; pH = 7.0, S1:S2 = 1:0",24.7%
same,Conversion rate of guanosine,"guanosine [3]; pH = 7.0, S1:S2 = 1:1",6.4%
same,Conversion rate of guanosine,"guanosine [3]; pH = 7.0, S1:S2 = 1:2",8.2%
same,Conversion rate of guanosine,"guanosine [3]; pH = 7.0, S1:S2 = 1:4",16.5%
same,Conversion rate of guanosine,"guanosine [3]; pH = 7.0, S1:S2 = 2:1",3.2%
[N-]=[N+]=NCCCC(=O)C=O [drawing 54],Conversion rate of guanosine,"guanosine [3]; pH = 7.0, S1:S2 = 1:1",40.8%
same,Conversion rate of guanosine,"guanosine [3]; pH = 7.0, S1:S2 = 1:2",63.2%
same,Conversion rate of guanosine,"guanosine [3]; pH = 7.0, S1:S2 = 1:4",87.2%
same,Conversion rate of guanosine,"guanosine [3]; pH = 7.0, S1:S2 = 2:1",19.8%
CC(C(=O)C=O)N(C)C(=O)CN=[N+]=[N-] (stereo not shown) [drawing 86],Conversion of guanosine under competition condition,guanosine [1]; [4],41.8%
same,Conversion of guanosine under competition condition,guanosine [1]; [5],26.1%
same,Conversion of guanosine under competition condition,guanosine [1]; [6],23.4%
[N-]=[N+]=NCCOC(F)(F)C(=O)C=O [drawing 90],Conversion of guanosine under competition condition,"guanosine [1]; pH = 10.1, 10 min, excess GTP added after 10 min",51.2% (pH = 10.1)
same,Conversion of guanosine under competition condition,"guanosine [1]; pH = 10.1, 2 h, excess GTP competitor",42.4% (pH = 10.1)
same,Conversion of guanosine under competition condition,"guanosine [1]; pH = 10.1, 24 h, excess GTP competitor",22.2% (pH = 10.1)
CC(C(=O)C=O)N(C)C(=O)CN=[N+]=[N-] (stereo not shown) [drawing 40],Conversion rate of guanosine,"guanosine [3]; pH = 7.8, S1:S2 = 1:1",40.2%
same,Conversion rate of guanosine,"guanosine [3]; pH = 7.8, S1:S2 = 1:2",66.7%
same,Conversion rate of guanosine,"guanosine [3]; pH = 7.8, S1:S2 = 1:3",74.9%
same,Conversion rate of guanosine,"guanosine [3]; pH = 7.8, S1:S2 = 1:5",83.2%
